Results published in patent US20260242391A1 (priority 2023, published 2026).
pEC50, pIC50: −log10 of the molar value.

Columns and labels:
HL-60 = HL-60 differentiation potency; type: cell-based; conditions: Homo sapiens
in vitro = conditions: human

pEC50 (HL-60) | pIC50 (in vitro) | Compound | pIC50 (in vitro; HL-60 cells)
7.33 | 6.05 | C[C@H]1[C@@H](Oc2ccc(CC(=O)O)cc2C(F)(F)F)O[C@@H]2O[C@@]3(C)CC[C@H]4[C@H](C)CC[C@@H]1[C@@]24OO3 [Compound 183, 2-(3-(trifluoromethyl)-4-(((3R,5aS,6R, 8aS,9R,10S,12R, 12aR)-3,6,9-trimethyldeca-hydro-12H-3,12-epoxy[1,2]dioxepino[4,3-i]isochromen-10-yl)oxy)phenyl) acetic acid] | 
5.04 | 5.08 | C[C@H]1[C@H](NCc2ccc(S(C)(=O)=O)cc2)O[C@@H]2O[C@@]3(C)CC[C@H]4[C@H](C)CC[C@@H]1[C@@]24OO3 [Compound 58, (3R,5aS,6R,8aS, 9R,10R,12R, 12aR)-3,6,9-trimethyl-N-(4-(methylsulfonyl)benzyl) decahydro-12H-3,12-epoxy[1,2] dioxepino[4,3-i] isochromen-10-amine] | 
6.32 | < 4.70 | COc1cc(CO[C@H]2O[C@@H]3O[C@@]4(C)CC[C@H]5[C@H](C)CC[C@@H]([C@H]2C)[C@@]35OO4)ccc1C(=O)O [Compound 35, 2-methoxy-4-((((3R,5aS,6R, 8aS,9R,10S,12R, 12aR)-3,6,9-trimethyldeca-hydro-12H-3,12-epoxy[1,2]dioxepino[4,3-i]isochromen-10-yl)oxy)methyl) benzoic acid] | 
5.64 | 5.31 | COc1cc(CN[C@@H]2O[C@@H]3O[C@@]4(C)CC[C@H]5[C@H](C)CC[C@@H]([C@H]2C)[C@@]35OO4)ccn1 [Compound 50, (3R,5aS,6R,8aS, 9R,10R,12R, 12aR)-N-((2-methoxypyridin-4-yl)methyl)-3,6,9-trimethyldeca-hydro-12H-3,12-epoxy[1,2] dioxepino[4,3-i] isochromen-10-amine] | 
6.46 | < 4.70 | C[C@H]1[C@@H](OCc2ccc(C(=O)O)c(Cl)c2)O[C@@H]2O[C@@]3(C)CC[C@H]4[C@H](C)CC[C@@H]1[C@@]24OO3 [Compound 33, 2-chloro-4-((((3R,5aS,6R, 8aS,9R,10S,12R, 12aR)-3,6,9-trimethyldeca-hydro-12H-3,12-epoxy[1,2]dioxepino[4,3-i]isochromen-10-yl)oxy)methyl) benzoic acid] | 
6.68 | < 4.70 | C[C@H]1[C@@H](OCc2ccc(C(=O)O)c(F)c2)O[C@@H]2O[C@@]3(C)CC[C@H]4[C@H](C)CC[C@@H]1[C@@]24OO3 [Compound 24, 2-fluoro-4-((((3R,5aS,6R,8aS, 9R,10S,12R, 12aR)-3,6,9-trimethyldeca-hydro-12H-3,12-epoxy[1,2]dioxepino[4,3-i]isochromen-10-yl)oxy)methyl) benzoic acid] | 
6.88 | 4.98 | C[C@H]1[C@@H](OCc2cc(C(=O)O)ccc2Cl)O[C@@H]2O[C@@]3(C)CC[C@H]4[C@H](C)CC[C@@H]1[C@@]24OO3 [Compound 167, 4-chloro-3-((((3R,5aS,6R,8aS, 9R,10S,12R, 12aR)-3,6,9-trimethyldeca-hydro-12H-3,12-epoxy[1,2]dioxepino[4,3-i]isochromen-10-yl)oxy)methyl) benzoic acid] | 
7.37 | < 4.70 | COc1cc(CC(=O)O)ccc1O[C@H]1O[C@@H]2O[C@@]3(C)CC[C@H]4[C@H](C)CC[C@@H]([C@H]1C)[C@@]24OO3 [Compound 3, 2-(3-methoxy-4-(((3R,5aS,6R, 8aS,9R,10S,12R, 12aR)-3,6,9-trimethyldeca-hydro-12H-3,12-epoxy[1,2]dioxepino[4,3-i]isochromen-10-yl)oxy)phenyl) acetic acid] | 
5.77 | 5.70 | C[C@H]1[C@H](NCCC(N)=O)O[C@@H]2O[C@@]3(C)CC[C@H]4[C@H](C)CC[C@@H]1[C@@]24OO3 [Compound 96, 3-(((3R,5aS,6R,8aS, 9R,10R,12R, 12aR)-3,6,9-trimethyldeca-hydro-12H-3,12-epoxy[1,2]dioxepino[4,3-i]isochromen-10-yl)amino) propanamide] | 
6.95 | 6.11 | C[C@H]1[C@@H](Oc2ccc(CCCCC(=O)O)cc2)O[C@@H]2O[C@@]3(C)CC[C@H]4[C@H](C)CC[C@@H]1[C@@]24OO3 [Compound 72, 5-(4-(((3R,5aS, 6R,8aS,9R,10S, 12R,12aR)-3,6,9-trimethyldeca-hydro-12H-3,12-epoxy[1,2]dioxepino[4,3-i]isochromen-10-yl)oxy)phenyl) pentanoic acid] | 
7.63 | 7.40 | C[C@H]1[C@@H](Oc2ccc(-c3ccc(C(=O)O)cc3)cc2)O[C@@H]2O[C@@]3(C)CC[C@H]4[C@H](C)CC[C@@H]1[C@@]24OO3 [Compound 107, 4′-(((3R,5aS,6R,8aS, 9R,10S,12R, 12aR)-3,6,9-trimethyldeca-hydro-12H-3,12-epoxy[1,2]dioxepino[4,3-i]isochromen-10-yl)oxy)-[1,1′-biphenyl]-4-carboxylic acid] | 
5.80 | < 4.70 | C[C@H]1[C@@H](OCC(=O)N2C[C@H]3[C@@H]([C@H]2C(=O)O)C3(C)C)O[C@@H]2O[C@@]3(C)CC[C@H]4[C@H](C)CC[C@@H]1[C@@]24OO3 [Compound 151, (1R,2S,5S)-6,6-dimethyl-3-(2-(((3R,5aS,6R,8aS, 9R,10S,12R, 12aR)-3,6,9-trimethyldeca-hydro-12H-3,12-epoxy[1,2]dioxepino[4,3-i]isochromen-10-yl)oxy)acetyl)-3-azabicyclo[3.1.0] hexane-2-carboxylic acid] | 
7.18 | 5.82 | CC(O[C@H]1O[C@@H]2O[C@@]3(C)CC[C@H]4[C@H](C)CC[C@@H]([C@H]1C)[C@@]24OO3)c1ccc(C(=O)O)cc1Cl (stereo partly drawn) [Compound 179, 3-chloro-4-(1-(((3R,5aS,6R,8aS, 9R,10S,12R, 12aR)-3,6,9-trimethyldeca-hydro-12H-3,12-epoxy[1,2]dioxepino[4,3-i]isochromen-10-yl)oxy)ethyl) benzoic acid] | 
6.96 | < 4.70 | C[C@H]1[C@@H](OCc2ccc(C(=O)O)cc2Cl)O[C@@H]2O[C@@]3(C)CC[C@H]4[C@H](C)CC[C@@H]1[C@@]24OO3 [Compound 119, 3-chloro-4-((((3R,5aS,6R, 8aS,9R,10S,12R, 12aR)-3,6,9-trimethyldeca-hydro-12H-3,12-epoxy[1,2]dioxepino[4,3-i]isochromen-10-yl)oxy)methyl) benzoic acid] | 
6.69 | 6.40 | C[C@H]1[C@H](OCc2ccc(B(O)O)cc2)O[C@@H]2O[C@@]3(C)CC[C@H]4[C@H](C)CC[C@@H]1[C@@]24OO3 [Compound 176, (4-((((3R,5aS,6R,8aS, 9R,10R,12R, 12aR)-3,6,9-trimethyldeca-hydro-12H-3,12-epoxy[1,2]dioxepino[4,3-i]isochromen-10-yl)oxy)methyl)phenyl)boronic acid] | 
4.76 | < 4.70 | C[C@H]1[C@H](OCc2cccc(C(=O)O)c2)O[C@@H]2O[C@@]3(C)CC[C@H]4[C@H](C)CC[C@@H]1[C@@]24OO3 [Compound 91, 3-((((3R,5aS,6R,8aS, 9R,10R,12R, 12aR)-3,6,9-trimethyldeca-hydro-12H-3,12-epoxy[1,2]dioxepino[4,3-i]isochromen-10-yl)oxy)methyl) benzoic acid] | 
7.32 | 6.70 | C[C@H]1[C@H](OCC2CCC(F)(F)CC2)O[C@@H]2O[C@@]3(C)CC[C@H]4[C@H](C)CC[C@@H]1[C@@]24OO3 [Compound 105, (3R,5aS,6R,8aS, 9R,10R,12R, 12aR)-10-((4,4-difluorocyclo-hexyl)methoxy)-3,6,9-trimethyldeca-hydro-12H-3,12-epoxy[1,2] dioxepino[4,3-i] isochromene] | 
7.77 | 6.10 | C[C@H]1[C@@H](Oc2ccc(C(=O)N[C@H](C(=O)O)C(C)(C)C)cc2)O[C@@H]2O[C@@]3(C)CC[C@H]4[C@H](C)CC[C@@H]1[C@@]24OO3 [Compound 184, (S)-3,3-dimethyl-2-(4-(((3R,5aS,6R,8aS, 9R,10S,12R, 12aR)-3,6,9-trimethyldeca-hydro-12H-3,12-epoxy[1,2]dioxepino[4,3-i]isochromen-10-yl)oxy)benzamido) butanoic acid] | 
6.18 | 6.13 | C[C@H]1[C@H](NCCS(C)(=O)=O)O[C@@H]2O[C@@]3(C)CC[C@H]4[C@H](C)CC[C@@H]1[C@@]24OO3 [Compound 99, (3R,5aS,6R,8aS, 9R,10R,12R, 12aR)-3,6,9-trimethyl-N-(2-(methylsulfonyl)ethyl)decahydro-12H-3,12-epoxy [1,2]dioxepino [4,3-i]isochromen-10-amine] | 
7.38 | 7.23 | C[C@H]1[C@H](OCc2ccc(-c3nn[nH]n3)cc2)O[C@@H]2O[C@@]3(C)CC[C@H]4[C@H](C)CC[C@@H]1[C@@]24OO3 [Compound 2, 5-(4-((((3R,5aS,6R, 8aS,9R,10R,12R, 12aR)-3,6,9-trimethyldeca-hydro-12H-3,12-epoxy[1,2]dioxepino[4,3-i]isochromen-10-yl)oxy)methyl)phenyl)-2H-tetrazole] | 
6.77 | < 4.70 | C[C@H]1[C@H](OC[C@H]2CCC[C@@H](C(=O)O)C2)O[C@@H]2O[C@@]3(C)CC[C@H]4[C@H](C)CC[C@@H]1[C@@]24OO3 [Compound 173, (1R,3S)-3-((((3R,5aS,6R,8aS, 9R,10R,12R, 12aR)-3,6,9-trimethyldeca-hydro-12H-3,12-epoxy[1,2]dioxepino[4,3-i]isochromen-10-yl)oxy)methyl) cyclohexane-1-carboxylic acid] | 
6.76 | < 4.70 | C[C@H]1[C@@H](OCc2ccc(C(=O)O)c(C(F)(F)F)c2)O[C@@H]2O[C@@]3(C)CC[C@H]4[C@H](C)CC[C@@H]1[C@@]24OO3 [Compound 155, 2-(trifluoromethyl)-4-((((3R,5aS,6R, 8aS,9R,10S,12R, 12aR)-3,6,9-trimethyldeca-hydro-12H-3,12-epoxy[1,2]dioxepino[4,3-i]isochromen-10-yl)oxy)methyl) benzoic acid] | 

Compound | pEC50 (HL-60) | pIC50 (in vitro) | pIC50 (in vitro; HL-60 cells)
C[C@H]1[C@@H](Oc2ccc(O[C@H]3C[C@@H](C(=O)O)C3)cc2)O[C@@H]2O[C@@]3(C)CC[C@H]4[C@H](C)CC[C@@H]1[C@@]24OO3 [Compound 182, (1R,3s)-3-(4-(((3R,5aS,6R,8aS, 9R,10S,12R, 12aR)-3,6,9-trimethyldeca-hydro-12H-3,12-epoxy[1,2]dioxepino[4,3-i]isochromen-10-yl)oxy)phenoxy) cyclobutane-1-carboxylic acid] | 7.62 |  | 6.00
